Results published in patent US20050221456A1, “Use of indanoyl amide to stimulate secondary metabolism in Taxus sp” (Phyton Biotech, Inc., priority 2004, published 2005).

Key:
tendril coiling = conditions: quoted from Haider et al.; cited from earlier work
[1] = tested on: paclitaxel and taxanes biosynthesis; conditions: teaching of EP 727492 (Yukimune et al.); cited from earlier work
Taxus chinensis cells [2] = assay: Effect of 1-OII on accumulation of taxanes by Taxus cell suspension culture (14 days); type: cell-based; conditions: for Baccatin III / Paclitaxel / Total taxanes: 14 days in production medium with NAA, MDCA, GLN, silver thiosulfate
Procedure: (§1) This experiment was carried out according to the following parameters. Taxus chinensis cells were cultivated as callus and then as suspended cells on growth medium (Medium A, Table B) according to the methods described above. After seven days of cultivation in this medium, the suspended cells were substantially separated from this medium and placed at ca. 20% (w/v) fresh cells into a basal production medium (Medium B, Table B) with an initial pH of 5.8. In addition to the ingredients listed in Table B, the medium also contained 20 micromol/l NAA, 20 micromol/l MDCA, 5 mmol/l GLN, and 50 micromol/l silver as a thiosulfate complex. The gas phase was controlled to oxygen at 90-97% of the value in air and 2.5-6% CO2; the temperature was held at 25±2 degrees Celsius. The cells were cultivated in the dark and were agitated at 150-200 rpm for the duration of the experiment. After 14 days of cultivation in production medium, the culture was harvested for taxanes.

Taxus chinensis cells [3] = assay: Fed batch addition of 6-EII, taxane production in Taxus chinensis suspension culture (12 days); type: cell-based; conditions: for Baccatin III / Paclitaxel: harvest after 12 days in production medium; for Total: total taxanes, harvest after 12 days
Source text: The medium also contains an indanoyl amide as described in the present application, optionally in combination with one or more jasmonic acid-related substance, and these materials may be added at the beginning of the culture, after the exponential growth phase, or intermittantly throughout the culture period. The other ingredients of the medium may be added all at one time or at different times during the cultivation and may be fed continuously or intermittently. The ingredients may be added either before or after the inclusion of plant cells in the culture broth. Further, nutrients or other ingredients may be additionally added during cultivation, if deemed useful. Optionally, the medium may be changed after a suitable period of cultivation whereby the cells are freshly exposed to a medium containing similar ingredients as described above. Such changes could involve changes to the amounts of sugars such as glucose, fructose, sucrose, maltose, etc., nitrogen sources such as nitrate, ammonium, or amino acids or casamino acids, etc. After a period of cultivation, the culture is harvested and the levels of taxanes are quantified using HPLC and specific taxanes are identified using LC/MS/MS. Taxanes can be recovered from these cultures by appropriate extraction and purification procedures. For Experiments 2-8, Taxus cells were cultivated as callus cultures on solid medium and then further cultivated as suspensions of cell aggregates in liquid medium. Although taxanes can be produced by cultivation on solid medium, the use of liquid medium is preferred. The temperature of cultivation was controlled between 20 and 30 degrees Celsius. This experiment was carried out according to the following parameters. […] Taxus chinensis cells were cultivated as callus and then as suspended cells in growth medium (Medium A shown in Table B) containing 1% maltose and B5 salts according to the methods described above. After seven days of cultivation in this medium, the suspended cells were substantially separated from this medium and placed at about 20% (w/v) fresh cells into a production medium consisting of about 20% (v/v) spent growth medium and 80% (v/v) basal production medium (Medium B shown in Table B, but 1.25-fold concentrated) with an initial pH of 5.8 and containing 20 micromol/l MDCA and 50 micromol/l SLTS (Silver Thiosulfate). […] The gas phase was controlled to 25% oxygen and 4.5% CO2 (balance nitrogen) and the temperature was held at 25±2 degrees Celsius. The cells were cultivated in the dark and were agitated at 100-150 rpm for the duration of the experiment. After 12 days of cultivation in production medium, the culture was harvested for taxanes.

Taxus cells = assay: Batch addition of 6-EII in combination with other medium components, taxane production; type: cell-based; conditions: batch mode
Procedure: Taxus cells were cultivated using procedures similar to those used for Example 2. The media were composed of different combinations of 6-EII (or methyl jasmonate-MJS), NAA, SLTS, MDCA and Glutamine. All ingredients were added in a batch mode, i.e., all at once.

Taxus chinensis cells [4] = assay: Effect of 6-EII in combination with other medium ingredients on taxane yield (14 days); type: cell-based
Procedure: as §1, with “growth Medium A (Table B),” for “growth medium (Medium A, Table B)”, “at approximately” for “at ca.”, “the components” for “the ingredients”, “in Medium” for “in Table”, “medium additionally comprised” for “medium also contained 20 micromol/l NAA, 20 micromol/l MDCA,”, “5 millimol/l glutamine.” for “5 mmol/l GLN, and 50 micromol/l silver as a thiosulfate complex.”

Taxus chinensis cells [5] = assay: Effect of silver nitrate and 6-EII on taxane production (14 days); type: cell-based; conditions: silver as nitrate salt or thiosulfate complex
Source text: Taxus chinensis cells were cultivated as callus and then as suspended cells on growth medium (Table B, Medium A) according to the methods described above in Examples 1 and 2. After seven days of cultivation in this medium, the suspended cells were substantially separated from this medium and placed at ca. 20% (w/v) fresh cells into Medium B (Table B) at an initial pH of 5.8. In addition to the components listed in Table B, 20 micromol/l NAA, 20 micromol/l MDCA, 5 mmol/l GLN, MJS or 6-EII and silver as a nitrate salt or thiosulfate complex were added to the medium at various levels. The gas phase was controlled to oxygen at 90-97% of the levels in air and CO2 at 2.5-6%; the temperature was held at 25±2 degrees Celsius. The cells were cultivated in the dark and were agitated at 150-200 rpm for the duration of the experiment. After 14 days of cultivation in production medium, the culture was harvested for taxanes.

Taxus chinensis cells [6] = assay: Effect of 6-BII on taxane production in suspension culture (14 days); type: cell-based; conditions: for Baccatin III / Paclitaxel / Total taxanes: 14 days in production medium with NAA, MDCA, GLN, silver thiosulfate
Procedure: as §1, with “approximately” for “ca.”, “comprised” for “also contained”, “levels” for “value”

[7] = tested on: touch-sensitive tendrils of Bryonia diocia; conditions: quoted from Schuler et al. WO 02/55480; cited from earlier work
[8] = tested on: Eschscholzia californica Cell Cultures; conditions: compared with the octadecanoids or coronatine; quoted from Haider et al.; cited from earlier work
[9] = cumulative 12-day fed batch dose 20 micromol/l
[10] = cumulative 12-day fed batch dose 50 micromol/l
[11] = cumulative 12-day fed batch dose 75 micromol/l
[12] = cumulative 12-day fed batch dose 100 micromol/l
[13] = cumulative 12-day fed batch dose 30 micromol/l

CCC1CC1(NC(=O)C1=C[C@H](CC)C[C@@H]2C(=O)CC[C@H]12)C(=O)O (some centres unmarked) [Coronatine]
induction of tendril coiling (tendril coiling): strong inducers of tendril coiling | induction of paclitaxel and taxanes biosynthesis [1]: shown to induce paclitaxel and taxanes biosynthesis

CC[C@H](C)[C@H](NC(=O)c1cccc2c1CCC2=O)C(=O)OC [1-OII, 1-oxo-indane-carboxy-(L)-isoleucine-methyl ester amide]
induction of taxanes production (Taxus chinensis cells [2]; Taxus suspension culture): effective inducer of taxanes production | Baccatin III (Taxus chinensis cells [2]; dose 5 micromol/l): 50 mg/L | Paclitaxel (Taxus chinensis cells [2]; dose 5 micromol/l): 192 mg/L | Total taxanes (Taxus chinensis cells [2]; dose 5 micromol/l): 300 mg/L | Baccatin III (Taxus chinensis cells [2]; dose 20 micromol/l): 72 mg/L | Paclitaxel (Taxus chinensis cells [2]; dose 20 micromol/l): 248 mg/L | Total taxanes (Taxus chinensis cells [2]; dose 20 micromol/l): 400 mg/L | Baccatin III (Taxus chinensis cells [2]; dose 50 micromol/l): 112 mg/L | Paclitaxel (Taxus chinensis cells [2]; dose 50 micromol/l): 349 mg/L | Total taxanes (Taxus chinensis cells [2]; dose 50 micromol/l): 580 mg/L | Baccatin III (Taxus chinensis cells [2]; dose 100 micromol/l): 242 mg/L | Paclitaxel (Taxus chinensis cells [2]; dose 100 micromol/l): 409 mg/L | Total taxanes (Taxus chinensis cells [2]; dose 100 micromol/l): 822 mg/L | Baccatin III (Taxus chinensis cells [2]; dose 200 micromol/l): 375 mg/L | Paclitaxel (Taxus chinensis cells [2]; dose 200 micromol/l): 407 mg/L | Total taxanes (Taxus chinensis cells [2]; dose 200 micromol/l): 1055 mg/L | Baccatin III (Taxus chinensis cells [2]; dose 500 micromol/l): 45 mg/L | Paclitaxel (Taxus chinensis cells [2]; dose 500 micromol/l): 67 mg/L | Total taxanes (Taxus chinensis cells [2]; dose 500 micromol/l): 368 mg/L

6-ethyl-indanoyl-isoleucine [6-EII]
activity on taxane production compared with methyl jasmonate (Taxus chinensis cells [3]; 12-day fed batch treatment): comparable activity | Baccatin III (Taxus chinensis cells [3]; [9]): 159 mg/L | Paclitaxel (Taxus chinensis cells [3]; [9]): 443 mg/L | Baccatin III (Taxus chinensis cells [3]; [10]): 358 mg/L | Paclitaxel (Taxus chinensis cells [3]; [10]): 495 mg/L | Baccatin III (Taxus chinensis cells [3]; [11]): 605 mg/L | Paclitaxel (Taxus chinensis cells [3]; [11]): 556 mg/L | Baccatin III (Taxus chinensis cells [3]; [12]): 616 mg/L | Paclitaxel (Taxus chinensis cells [3]; [12]): 557 mg/L | Total (Taxus chinensis cells [3]; [9]): 694 mg/L | Total (Taxus chinensis cells [3]; [10]): 1301 mg/L | Total (Taxus chinensis cells [3]; [11]): 1693 mg/L | Total (Taxus chinensis cells [3]; [12]): 1702 mg/L | activity in improving taxane production compared with MJS (Taxus cells; all ingredients added at once): comparable activity in improving taxane production | interaction with auxin-type growth regulator NAA on taxane production (Taxus cells; combined with NAA): interact positively to improve taxane production | interaction with glutamine on taxane production (Taxus cells; combined with glutamine): interact favorably to improve taxane production | interaction with silver on overall production of taxanes (Taxus cells; combined with silver (SLTS)): works synergistically with silver to increase overall production of taxanes | effect on baccatin-III versus paclitaxel production (Taxus cells; with silver): improve baccatin-III production without reducing the amount of paclitaxel produced | taxane yield, 6-EII by itself (Taxus chinensis cells [4]; 6-EII 5-500 micromol/l, by itself): increase in taxane yield | taxane yield, combined with NAA (Taxus chinensis cells [4]; 6-EII with 20 micromol/l NAA): yield improved by a significantly higher amount | taxane yield, combined with NAA and silver (Taxus chinensis cells [4]; 6-EII with 20 micromol/l NAA and 50 micromol/l silver (thiosulfate complex)): yield further increased | taxane yield, combined with NAA, silver and MDCA (Taxus chinensis cells [4]; 6-EII with 20 micromol/l NAA, 50 micromol/l silver and 20 micromol/l MDCA): yield increased even further | interaction with silver on taxane production (Taxus chinensis cells [5]): act synergistically

6-Bromoindanoyl isoleucine [6-BII]
induction of taxanes production (Taxus chinensis cells [6]; T. chinensis cell cultures): effective inducer of taxanes production | Baccatin III (Taxus chinensis cells [6]; dose 5 micromol/l): 92 mg/L | Paclitaxel (Taxus chinensis cells [6]; dose 5 micromol/l): 235 mg/L | Total taxanes (Taxus chinensis cells [6]; dose 5 micromol/l): 423 mg/L | Baccatin III (Taxus chinensis cells [6]; dose 20 micromol/l): 114 mg/L | Paclitaxel (Taxus chinensis cells [6]; dose 20 micromol/l): 230 mg/L | Total taxanes (Taxus chinensis cells [6]; dose 20 micromol/l): 441 mg/L | Baccatin III (Taxus chinensis cells [6]; dose 50 micromol/l): 174 mg/L | Paclitaxel (Taxus chinensis cells [6]; dose 50 micromol/l): 254 mg/L | Total taxanes (Taxus chinensis cells [6]; dose 50 micromol/l): 580 mg/L | Baccatin III (Taxus chinensis cells [6]; dose 100 micromol/l): 313 mg/L | Paclitaxel (Taxus chinensis cells [6]; dose 100 micromol/l): 360 mg/L | Total taxanes (Taxus chinensis cells [6]; dose 100 micromol/l): 962 mg/L | Baccatin III (Taxus chinensis cells [6]; dose 200 micromol/l): 307 mg/L | Paclitaxel (Taxus chinensis cells [6]; dose 200 micromol/l): 375 mg/L | Total taxanes (Taxus chinensis cells [6]; dose 200 micromol/l): 1060 mg/L | Baccatin III (Taxus chinensis cells [6]; dose 500 micromol/l): 1 mg/L | Paclitaxel (Taxus chinensis cells [6]; dose 500 micromol/l): 0 mg/L | Total taxanes (Taxus chinensis cells [6]; dose 500 micromol/l): 105 mg/L

CCc1cc2c(c(C(=O)N[C@H](C(=O)OC)[C@@H](C)CC)c1)CCC2=O [6-ethyl-1-oxo-indanoyl isoleucine methyl ester]
elicitation of the coiling reaction of tendrils [7]: potent elicitor

CC/C=C\CC1C(=O)CCC1CC(=O)OC (centres unmarked) [MJS, methyl jasmonate, reference compound]
Baccatin III (Taxus chinensis cells [3]; [13]): 273 mg/L | Paclitaxel (Taxus chinensis cells [3]; [13]): 490 mg/L | Total (Taxus chinensis cells [3]; [13]): 1410 mg/L | Baccatin III (Taxus chinensis cells [6]; dose 45 micromol/l): 154 mg/L | Paclitaxel (Taxus chinensis cells [6]; dose 45 micromol/l): 574 mg/L | Total taxanes (Taxus chinensis cells [6]; dose 45 micromol/l): 912 mg/L | Baccatin III (Taxus chinensis cells [2]; dose 45 micromol/l): 226 mg/L | Paclitaxel (Taxus chinensis cells [2]; dose 45 micromol/l): 432 mg/L | Total taxanes (Taxus chinensis cells [2]; dose 45 micromol/l): 854 mg/L | activation of benzo[c]phenanthridine alkaloid accumulation [8]: much more effective
